# Several values for one entry are separate records, joined by “and”; a condition that tells them apart may be missing. Identical values can stand only once. Inconclusive results and toxic doses are left out.
# System: P388 leukemia ip, CD2F1 mice, survival T/C
# Test: NCI In Vivo Anticancer Drug Screen. Data for tumor model P388 Leukemia (intraperitoneal) in CD2F1 (CDF1) mice
# Conditions: endpoint: median survival time, higher = longer survival
# Procedure, shortened: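 Mice carrying the transplanted tumor received test compound or vehicle. Survival was recorded in each group, and the value is the treated-group measurement divided by that of the vehicle-treated control group.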
# [1] = dose: 60.0 mg/kg/injection, schedule: Q01DX005 (ip), vehicle: Klucel (hydroxypropylcellulose) (HPC)
# [2] = dose: 120.0 mg/kg/injection, schedule: Q01DX005 (ip), vehicle: Klucel (hydroxypropylcellulose) (HPC)
# [3] = dose: 100.0 mg/kg/injection, schedule: Q04DX003 (ip), vehicle: saline with Tween-80
# [4] = dose: 200.0 mg/kg/injection, schedule: Q04DX003 (ip), vehicle: saline with Tween-80
# [5] = dose: 400.0 mg/kg/injection, schedule: Q04DX003 (ip), vehicle: saline with Tween-80
# [6] = dose: 15.0 mg/kg/injection, schedule: Q01DX005 (ip), vehicle: saline with Tween-80
# [7] = dose: 30.0 mg/kg/injection, schedule: Q01DX005 (ip), vehicle: saline with Tween-80
# [8] = dose: 60.0 mg/kg/injection, schedule: Q01DX005 (ip), vehicle: saline with Tween-80
# [9] = dose: 50.0 mg/kg/injection, schedule: Q01DX009 (ip), vehicle: Klucel (hydroxypropylcellulose) (HPC)
# [10] = dose: 100.0 mg/kg/injection, schedule: Q01DX009 (ip), vehicle: Klucel (hydroxypropylcellulose) (HPC)
# [11] = dose: 200.0 mg/kg/injection, schedule: Q01DX009 (ip), vehicle: Klucel (hydroxypropylcellulose) (HPC)
# [12] = dose: 100.0 mg/kg/injection, schedule: Q04DX003 (ip), vehicle: Klucel (hydroxypropylcellulose) (HPC)
# [13] = dose: 200.0 mg/kg/injection, schedule: Q04DX003 (ip), vehicle: Klucel (hydroxypropylcellulose) (HPC)
# [14] = dose: 400.0 mg/kg/injection, schedule: Q04DX003 (ip), vehicle: Klucel (hydroxypropylcellulose) (HPC)
# [15] = dose: 50.0 mg/kg/injection, schedule: Q01DX009 (ip), vehicle: saline
# [16] = dose: 200.0 mg/kg/injection, schedule: Q01DX009 (ip), vehicle: saline
# [17] = dose: 240.0 mg/kg/injection, schedule: Q01DX005 (ip), vehicle: Klucel (hydroxypropylcellulose) (HPC)
# [18] = dose: 120.0 mg/kg/injection, schedule: Q01DX005 (ip), vehicle: saline with Tween-80
# [19] = dose: 50.0 mg/kg/injection, schedule: Q01DX009 (ip), vehicle: saline with Tween-80
# [20] = dose: 100.0 mg/kg/injection, schedule: Q01DX009 (ip), vehicle: saline with Tween-80
# [21] = dose: 200.0 mg/kg/injection, schedule: Q01DX009 (ip), vehicle: saline with Tween-80
structure (smiles),measurement,setting,value
O=C1NC(=O)C2(OC3c4ccccc4C=NN3C3=C2C(=O)CCC3)C(=O)N1 (configuration not stated),T/C,[1],98 % of control
same,T/C,[2],97 % of control
COc1ccc(/C=N\O)cc1OC,T/C,[3],100 % of control
same,T/C,[4],100 % of control
same,T/C,[5],100 % of control
CCCCC1C2C(S(=O)(=O)c3ccccc3)=NOC2C=CN1C(C)=O (configuration not stated),T/C,[6],105 % of control and 109 % of control
same,T/C,[7],102 % of control and 93 % of control and 98 % of control
O=C(O)CCNCCC(=O)O,T/C,"dose: 50.0 mg/kg/injection, schedule: Q04DX003 (ip), vehicle: saline",96 % of control
same,T/C,"dose: 100.0 mg/kg/injection, schedule: Q04DX003 (ip), vehicle: saline",123 % of control and 97 % of control
same,T/C,"dose: 200.0 mg/kg/injection, schedule: Q04DX003 (ip), vehicle: saline",100 % of control
same,T/C,"dose: 400.0 mg/kg/injection, schedule: Q04DX003 (ip), vehicle: saline",95 % of control
Cc1ccc2cccc(OC(=O)Nc3ccc(C)c(NC(=O)Oc4cccc5ccc(C)nc45)c3)c2n1,T/C,[6],95 % of control
same,T/C,[7],97 % of control
same,T/C,[8],99 % of control and 93 % of control
O=C(CS(=O)(=O)c1ccccc1)CS(=O)(=O)c1ccccc1,T/C,[9],96 % of control
same,T/C,[10],98 % of control
same,T/C,[11],99 % of control
FC(F)(F)c1ssc1C(F)(F)F,T/C,"dose: 100.0 mg/kg/injection, schedule: Q01DX001 (ip), vehicle: other",99 % of control
same,T/C,"dose: 200.0 mg/kg/injection, schedule: Q01DX001 (ip), vehicle: other",104 % of control
CCOC(=O)c1c(C)c2c(n1Cc1ccccc1)CCCC2=O,T/C,[12],99 % of control
same,T/C,[13],97 % of control
same,T/C,[14],98 % of control
COc1ccc2sc(-c3ccccc3)cc(=O)c2c1CCl,T/C,"dose: 100.0 mg/kg/injection, schedule: Q01DX001 (ip), vehicle: saline with Tween-80",94 % of control
same,T/C,"dose: 200.0 mg/kg/injection, schedule: Q01DX001 (ip), vehicle: saline with Tween-80",97 % of control
same,T/C,"dose: 400.0 mg/kg/injection, schedule: Q01DX001 (ip), vehicle: saline with Tween-80",100 % of control
C1COCCOCCOCCOCCO1.[Br][Sn]([Br])([Br])[Br],T/C,"dose: 7.5 mg/kg/injection, schedule: Q01DX005 (ip), vehicle: Klucel (hydroxypropylcellulose) (HPC)",96 % of control
same,T/C,"dose: 15.0 mg/kg/injection, schedule: Q01DX005 (ip), vehicle: Klucel (hydroxypropylcellulose) (HPC)",102 % of control
same,T/C,"dose: 30.0 mg/kg/injection, schedule: Q01DX005 (ip), vehicle: Klucel (hydroxypropylcellulose) (HPC)",105 % of control
NC(CCl)C(=O)NO (configuration not stated),T/C,[15],99 % of control
same,T/C,"dose: 100.0 mg/kg/injection, schedule: Q01DX009 (ip), vehicle: saline",96 % of control
same,T/C,[16],103 % of control
CC(C)N=Cc1ccccc1O.CC(C)N=Cc1ccccc1O.[Zn],T/C,"dose: 25.0 mg/kg/injection, schedule: Q04DX003 (ip), vehicle: saline sonified",100 % of control
same,T/C,"dose: 50.0 mg/kg/injection, schedule: Q04DX003 (ip), vehicle: saline sonified",100 % of control
same,T/C,"dose: 100.0 mg/kg/injection, schedule: Q04DX003 (ip), vehicle: saline sonified",104 % of control
CC1(C)CC(=O)C=C(NCCCCNC2=CC(=O)CC(C)(C)C2)C1,T/C,[9],95 % of control
same,T/C,[10],95 % of control
same,T/C,[11],95 % of control
CC1([N+](=O)[O-])C(=O)C2(N3CCOCC3)CCCC2C1c1ccccc1 (configuration not stated),T/C,[1],99 % of control
same,T/C,[2],96 % of control
same,T/C,[17],90 % of control
[N-]=[N+]=Nc1ccc(Nc2c3ccccc3nc3ccccc23)cc1,T/C,"dose: 12.5 mg/kg/injection, schedule: Q01DX009 (ip), vehicle: Klucel (hydroxypropylcellulose) (HPC)",112 % of control and 98 % of control
same,T/C,"dose: 25.0 mg/kg/injection, schedule: Q01DX009 (ip), vehicle: Klucel (hydroxypropylcellulose) (HPC)",101 % of control and 114 % of control
same,T/C,[9],117 % of control and 122 % of control
CCC(=O)NC(CC(C)C)C(=O)O (configuration not stated),T/C,"dose: 12.5 mg/kg/injection, schedule: Q01DX009 (ip), vehicle: saline",111 % of control
same,T/C,"dose: 25.0 mg/kg/injection, schedule: Q01DX009 (ip), vehicle: saline",95 % of control
same,T/C,[15],89 % of control
same,T/C,[16],107 % of control
Cc1ccc2[nH]c(C)c(C(=O)c3cccnc3)c2c1,T/C,[12],92 % of control
same,T/C,[13],91 % of control
same,T/C,[14],110 % of control
C[Si](C)(C)CNCc1ccccc1,T/C,"dose: 15.0 mg/kg/injection, schedule: Q01DX005 (ip), vehicle: saline",108 % of control
same,T/C,"dose: 30.0 mg/kg/injection, schedule: Q01DX005 (ip), vehicle: saline",105 % of control
same,T/C,"dose: 60.0 mg/kg/injection, schedule: Q01DX005 (ip), vehicle: saline",102 % of control and 97 % of control
Nc1ccc2nc(-c3ccccc3)c(=O)oc2c1,T/C,[8],97 % of control
same,T/C,[18],98 % of control
O=S1(=O)c2ccccc2N(c2ccccc2)C2=NCCN21,T/C,[8],91 % of control
same,T/C,[18],99 % of control
same,T/C,"dose: 240.0 mg/kg/injection, schedule: Q01DX005 (ip), vehicle: saline with Tween-80",97 % of control
O=C(NC(=O)c1ccc(F)c(Cl)c1)NC1CC1,T/C,[1],100 % of control
same,T/C,[2],102 % of control
same,T/C,[17],93 % of control
COC(C(=O)C(O)C(C)O)C1Cc2cc3cc(OC4CC(OC(C)=O)C(OC5CC(O)C(OC)C(C)O5)C(C)O4)cc(O)c3c(O)c2C(=O)C1OC1CC(OC2CC(OC3CC(C)(O)C(OC(=O)C(C)C)C(C)O3)C(O)C(C)O2)C(O)C(C)O1 (configuration not stated),T/C,"dose: 0.02 mg/kg/injection, schedule: Q01DX010 (ip), vehicle: saline",100 % of control
same,T/C,"dose: 0.05 mg/kg/injection, schedule: Q01DX010 (ip), vehicle: saline",100 % of control
same,T/C,"dose: 0.2 mg/kg/injection, schedule: Q01DX009 (ip), vehicle: saline",183 % of control
same,T/C,"dose: 0.4 mg/kg/injection, schedule: Q01DX009 (ip), vehicle: saline",122 % of control
same,T/C,"dose: 3.2 mg/kg/injection, schedule: Q01DX010 (ip), vehicle: saline",90 % of control
CC(C)(CO)CBr,T/C,"dose: 100.0 mg/kg/injection, schedule: Q01DX009 (ip), vehicle: saline sonified",100 % of control
same,T/C,"dose: 200.0 mg/kg/injection, schedule: Q01DX009 (ip), vehicle: saline sonified",95 % of control
same,T/C,"dose: 400.0 mg/kg/injection, schedule: Q01DX009 (ip), vehicle: saline sonified",95 % of control
CN(C)CCCN1c2ccccc2Sc2ccc3ccccc3c21,T/C,"dose: 50.0 mg/kg/injection, schedule: Q01DX005 (ip), vehicle: saline with Tween-80",104 % of control
same,T/C,"dose: 100.0 mg/kg/injection, schedule: Q01DX005 (ip), vehicle: saline with Tween-80",102 % of control
same,T/C,"dose: 200.0 mg/kg/injection, schedule: Q01DX005 (ip), vehicle: saline with Tween-80",104 % of control
O=S(=O)(Oc1ccc(Cl)cc1)C(F)(F)C(F)(F)C(F)(F)C(F)(F)F,T/C,[19],105 % of control
same,T/C,[20],108 % of control
same,T/C,[21],105 % of control
O=C(CC(=O)c1ccc(Cl)s1)C(=O)NC1C2CC3CC(C2)CC1C3 (configuration not stated),T/C,"dose: 7.5 mg/kg/injection, schedule: Q01DX005 (ip), vehicle: saline with Tween-80",100 % of control
same,T/C,[6],102 % of control
same,T/C,[7],100 % of control
same,T/C,[8],94 % of control and 95 % of control
O=C1CCC2(ON=C(c3ccccc3)C2Br)O1 (configuration not stated),T/C,[19],116 % of control
same,T/C,[20],108 % of control
same,T/C,[21],116 % of control
CC1CC2C(=S)NC(=O)C(c3ccccc3)=C2O1 (configuration not stated),T/C,[9],107 % of control
same,T/C,[10],103 % of control
same,T/C,[11],100 % of control
COC/C(=N/Nc1ccc([N+](=O)[O-])cc1[N+](=O)[O-])c1ccccc1,T/C,[3],109 % of control
same,T/C,[4],109 % of control
same,T/C,[5],90 % of control
CCOC(=O)C(C(C)=O)C(c1cc(OC)c(OC)c(OC)c1)c1cc2c(cc1O)OCO2 (configuration not stated),T/C,[6],95 % of control
same,T/C,[7],90 % of control
same,T/C,[8],89 % of control and 92 % of control
same,T/C,[18],100 % of control and 93 % of control

# Reference: PubChem BioAssay AID330 (DTP/NCI, 2004)
